Assay results published in paper PMC6259751, “Investigating Spectrum of Biological Activity of 4- and 5-Chloro-2-hydroxy-N-[2-(arylamino)-1-alkyl-2-oxoethyl]benzamides” (Molecules, 2011).
Converted amounts (≈) assume the structure as drawn. Where two headings read alike, the source gives them in different places.

Key:
[1] = test system: photosynthetic electron transport (PET) in spinach chloroplasts; test: Inhibition of photosynthetic electron transport (PET) in spinach chloroplasts; type: biochemical, Spinacia oleracea L.; conditions: DCPIP photoreduction
Description: Chloroplasts were prepared from spinach (Spinacia oleracea L.) according to Masarovicova and Kralova. The inhibition of photosynthetic electron transport (PET) in spinach chloroplasts was determined spectrophotometrically (Genesys 6, Thermo Scientific, USA), using an artificial electron acceptor 2,6-dichlorophenol-indophenol (DCIPP) according to Kralova et al., and the rate of photosynthetic electron transport was monitored as a photoreduction of DCPIP. The measurements were carried out in phosphate buffer (0.02 mol/L, pH 7.2) containing sucrose (0.4 mol/L), MgCl2 (0.005 mol/L) and NaCl (0.015 mol/L). The chlorophyll content was 30 mg/L in these experiments and the samples were irradiated (~100 W/m^2) from 10 cm distance with a halogen lamp (250 W) using a 4 cm water filter to prevent warming of the samples. The studied compounds were dissolved in DMSO due to their limited water solubility. […] The inhibitory efficiency of the studied compounds was expressed by IC50 values, i.e. by molar concentration of the compounds causing 50% decrease in the oxygen evolution rate relative to the untreated control.

[2] = test system: Mycobacterium kansasii MK CNCTC My 235/80; test: In vitro antimycobacterial evaluation; type: cell-based; conditions: IC90 value
[3] = test system: methicilin resistant Staphylococcus aureus H 5996/08; test: In vitro antibacterial susceptibility testing (broth microdilution); conditions: MRSA, read-out: MIC MRSA
Candida tropicalis 156 = test: In vitro antifungal susceptibility testing (broth microdilution); type: cell-based; conditions: M27-A2 for yeasts, IC80 value
[4] = test system: Mycobacterium avium MA CNCTC My 330/88; test: In vitro antimycobacterial evaluation; type: cell-based; conditions: IC90 value
[5] = test system: Staphylococcus epidermidis H 6966/08; test: In vitro antibacterial susceptibility testing (broth microdilution); conditions: read-out: MIC SE
[6] = Lipophilicity determination by RP-HPLC (capacity factor k / log k); type: physicochemical; conditions: C18 column, MeOH 70% / H2O 30%, isocratic
Description: Hydrophobicities (log P/Clog P) of compounds 8 and 9 were calculated using two commercially available programs (ChemOffice Ultra 10.0 and ACD/LogP) and measured by means of RP-HPLC determination of capacity factors k with subsequent calculation of log k. The procedure was performed under isocratic conditions with methanol as an organic modifier in the mobile phase using an end-capped non-polar C18 stationary RP column. The results are shown in Table 1 and illustrated in Figure 1.
A Waters Alliance 2695 XE HPLC separation module and a Waters Photodiode Array Detector 2996 (Waters Corp., Milford, MA, USA) were used. A Symmetry® C18 5 μm, 4.6 × 250 mm, Part No. WAT054275 (Waters Corp., Milford, MA, USA) chromatographic column was used. The HPLC separation process was monitored by Empower™ 2 Chromatography Data Software, Waters 2009 (Waters Corp., Milford, MA, USA). A mixture of MeOH p.a. (70%) and H2O-HPLC – Mili-Q Grade (30%) was used as a mobile phase. The total flow of the column was 1.0 mL/min, injection volume, 30 μL, column temperature, 30 °C and sample temperature, 10 °C. The detection wavelength of 210 nm was chosen. The KI methanolic solution was used for the dead time (tD) determination. Retention times (tR) were measured in minutes. The capacity factors k were calculated using the Empower™ 2 Chromatography Data Software according to formula k = (tR - tD)/tD, where tR is the retention time of the solute, whereas tD denotes the dead time obtained using an unretained analyte. Log k, calculated from the capacity factor k, is used as the lipophilicity index converted to log P scale.

[7] = test system: Staphylococcus aureus CCM 4516/08; test: In vitro antibacterial susceptibility testing (broth microdilution); conditions: read-out: MIC SA
[8] = test system: Trichophyton mentagrophytes 445; test: In vitro antifungal susceptibility testing (broth microdilution); type: cell-based; conditions: M38-A for moulds, IC50 value, read-out: MIC TM
[9] = test system: Mycobacterium tuberculosis MTB CNCTC My 331/88; test: In vitro antimycobacterial evaluation; type: cell-based; conditions: IC90 value
[10] = test system: Enterococcus sp. J 14365/08; test: In vitro antibacterial susceptibility testing (broth microdilution); conditions: read-out: MIC EF

SMILES	IC50 [1] [µM]	MIC ([2]; 14h) [µM]	MIC ([2]; 21h) [µM]	MIC ([3]; 24 h) [µM]	MIC ([3]; 48 h) [µM]	MIC (Candida tropicalis 156; 24h) [µM]	MIC (Candida tropicalis 156; 48h) [µM]	MIC ([4]; 14h) [µM]	MIC ([4]; 21h) [µM]	MIC ([5]; H6966/08, 24 h) [µM]	MIC ([5]; H6966/08, 48 h) [µM]	log k [6]	MIC ([7]; CCM4516, 24 h) [µM]	MIC ([7]; CCM4516, 48 h) [µM]	MIC ([8]; 72h) [µM]	MIC ([8]; 120h) [µM]	MIC ([9]; 14h) [µM]	MIC ([9]; 21h) [µM]	MIC ([10]; SP.J14365/08, 24 h) [µM]	MIC ([10]; SP.J14365/08, 48 h) [µM]
O=C(N[C@@H](Cc1ccccc1)C(=O)Nc1ccc(Br)cc1)c1cc(Cl)ccc1O [8u]	31.2	62.5 (≈ 29.6 µg/mL)	125 (≈ 59.2 µg/mL)	> 125	> 125	500 (≈ 237 µg/mL)	> 500	250 (≈ 118 µg/mL)	250 (≈ 118 µg/mL)	> 125	> 125	0.7779	> 125	> 125	500 (≈ 237 µg/mL)	> 500	32 (≈ 15.2 µg/mL)	32 (≈ 15.2 µg/mL)	> 125	> 125
O=C(N[C@@H](Cc1ccccc1)C(=O)Nc1ccc(Cl)cc1)c1cc(Cl)ccc1O [8k]	29.8	32 (≈ 13.7 µg/mL)	62.5 (≈ 26.8 µg/mL)	> 500	> 500	125 (≈ 53.7 µg/mL)	> 125	32 (≈ 13.7 µg/mL)	32 (≈ 13.7 µg/mL)	> 500	> 500	0.7394	> 500	> 500	125 (≈ 53.7 µg/mL)	> 125	16 (≈ 6.87 µg/mL)	16 (≈ 6.87 µg/mL)	> 500	> 500
O=C(CNC(=O)c1cc(Cl)ccc1O)Nc1cccc(Cl)c1 [8a]	379	250 (≈ 84.8 µg/mL)	250 (≈ 84.8 µg/mL)	> 250	> 250	125 (≈ 42.4 µg/mL)	125 (≈ 42.4 µg/mL)	62.5 (≈ 21.2 µg/mL)	62.5 (≈ 21.2 µg/mL)	> 250	> 250	0.2439	> 250	> 250	125 (≈ 42.4 µg/mL)	125 (≈ 42.4 µg/mL)	125 (≈ 42.4 µg/mL)	125 (≈ 42.4 µg/mL)	> 250	> 250
C[C@H](NC(=O)c1ccc(Cl)cc1O)C(=O)Nc1ccc(Cl)cc1 [9a]	61.5	125 (≈ 44.2 µg/mL)	125 (≈ 44.2 µg/mL)	500 (≈ 177 µg/mL)	500 (≈ 177 µg/mL)	> 250	> 250	125 (≈ 44.2 µg/mL)	125 (≈ 44.2 µg/mL)	250 (≈ 88.3 µg/mL)	250 (≈ 88.3 µg/mL)	0.4934	250 (≈ 88.3 µg/mL)	500 (≈ 177 µg/mL)	> 250	> 250	62.5 (≈ 22.1 µg/mL)	62.5 (≈ 22.1 µg/mL)	500 (≈ 177 µg/mL)	500 (≈ 177 µg/mL)
CC(C)[C@H](NC(=O)c1cc(Cl)ccc1O)C(=O)Nc1ccc(Br)cc1 [8s]	26.2	62.5 (≈ 26.6 µg/mL)	125 (≈ 53.2 µg/mL)	> 125	> 125	> 125	> 125	62.5 (≈ 26.6 µg/mL)	62.5 (≈ 26.6 µg/mL)	> 125	> 125	0.6709	> 125	> 125	> 125	> 125	62.5 (≈ 26.6 µg/mL)	62.5 (≈ 26.6 µg/mL)	> 125	> 125
COc1ccc(NC(=O)[C@@H](NC(=O)c2ccc(Cl)cc2O)C(C)C)cc1 [9j]	35.7	–	–	–	–	–	–	–	–	–	–	0.3623	–	–	–	–	–	–	–	–
CC(C)[C@H](NC(=O)c1ccc(Cl)cc1O)C(=O)Nc1ccc(C(F)(F)F)cc1 [9h]	14.2	–	–	–	–	–	–	–	–	–	–	0.7892	–	–	–	–	–	–	–	–
Cc1ccc(NC(=O)[C@@H](NC(=O)c2ccc(Cl)cc2O)C(C)C)cc1 [9i]	37.3	–	–	–	–	–	–	–	–	–	–	0.5902	–	–	–	–	–	–	–	–
O=C(N[C@H](Cc1ccccc1)C(=O)Nc1ccc(Br)cc1)c1cc(Cl)ccc1O [8v]	–	32 (≈ 15.2 µg/mL)	32 (≈ 15.2 µg/mL)	7.81 (≈ 3.7 µg/mL)	15.6 (≈ 7.4 µg/mL)	500 (≈ 237 µg/mL)	> 500	250 (≈ 118 µg/mL)	250 (≈ 118 µg/mL)	62.5 (≈ 29.6 µg/mL)	125 (≈ 59.2 µg/mL)	0.7673	3.9 (≈ 1.85 µg/mL)	15.6 (≈ 7.4 µg/mL)	500 (≈ 237 µg/mL)	> 500	32 (≈ 15.2 µg/mL)	32 (≈ 15.2 µg/mL)	62.5 (≈ 29.6 µg/mL)	62.5 (≈ 29.6 µg/mL)
C[C@H](NC(=O)c1cc(Cl)ccc1O)C(=O)Nc1ccc(Cl)c(Cl)c1 [8n]	–	62.5 (≈ 24.2 µg/mL)	500 (≈ 194 µg/mL)	> 500	> 500	> 125	> 125	32 (≈ 12.4 µg/mL)	62.5 (≈ 24.2 µg/mL)	> 500	> 500	0.6698	> 500	> 500	> 125	> 125	32 (≈ 12.4 µg/mL)	32 (≈ 12.4 µg/mL)	> 500	> 500
CC(C)[C@@H](NC(=O)c1ccc(Cl)cc1O)C(=O)Nc1ccc(Br)cc1 [9g]	24	–	–	–	–	–	–	–	–	–	–	0.7353	–	–	–	–	–	–	–	–
